# In PMC6713091, “Exploring new structural features of the 4-[(3-methyl-4-aryl-2,3-dihydro-1,3-thiazol-2-ylidene)amino]benzenesulphonamide scaffold for the inhibition of human carbonic anhydrases” (Journal of Enzyme Inhibition and Medicinal Chemistry, 2019):
# Legend:
# hCA XII = hCA XII (Homo sapiens, UniProt O43570); experiment: Carbonic anhydrase inhibition assay, hCA XII; type: biochemical
# Procedure: (§1) The protein quantity in the column effluents was determined spectrophotometrically at 280 nm. Sodium dodecyl sulphate polyacrylamide gel electrophoresis (SDS-PAGE) was applied with a Bio-Rad Mini Gel system Mini-PROTEINVR system (Hercules, CA), Bio-Rad Laboratories, Inc., China after purification of both CA isoenzymes. Briefly, it was performed in acrylamide for the running (10%) and the stacking gel (3%) contained SDS (0.1%), respectively. Activities of CA isoenzymes were determined according to a method by Verporte et al.[57]. The increase in absorbance of the reaction medium was spectrophotometrically recorded at 348 nm. Also, the quantity of protein was determined at 595 nm according to the Bradford method. Bovine serum albumin was used as standard protein. The IC50 values were obtained from activity (%) versus compounds plots. For calculation of KI values, three different concentrations were used. The Lineweaver–Burk curves were drawn and calculations were realised.
# hCA II = hCA II (Homo sapiens, UniProt P00918); experiment: Carbonic anhydrase inhibition assay, hCA II; type: biochemical
# Procedure: (§2) The purification of cytosolic CA isoenzymes (CA I and CA II) was previously described with a simple one-step method by a Sepharose-4B-L tyrosine-sulphanilamide affinity chromatography.
# as §1
# hCA IX = hCA IX (Homo sapiens, UniProt Q16790); experiment: Carbonic anhydrase inhibition assay, hCA IX; type: biochemical
# Procedure: as §1
# hCA I = hCA I (Homo sapiens, UniProt P00915); experiment: Carbonic anhydrase inhibition assay, hCA I; type: biochemical
# Procedure: as §2, §1
# Sequence of hCA XII (O43570 25-354): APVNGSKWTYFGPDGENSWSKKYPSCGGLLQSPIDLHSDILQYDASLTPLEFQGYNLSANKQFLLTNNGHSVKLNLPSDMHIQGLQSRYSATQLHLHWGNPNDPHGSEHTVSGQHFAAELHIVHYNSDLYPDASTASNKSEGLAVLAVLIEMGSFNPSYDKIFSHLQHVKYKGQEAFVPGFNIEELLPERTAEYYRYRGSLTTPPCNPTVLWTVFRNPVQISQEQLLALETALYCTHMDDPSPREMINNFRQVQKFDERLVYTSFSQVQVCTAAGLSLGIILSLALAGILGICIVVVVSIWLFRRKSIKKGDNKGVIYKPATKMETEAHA
# Sequence of hCA I (P00915 whole entry): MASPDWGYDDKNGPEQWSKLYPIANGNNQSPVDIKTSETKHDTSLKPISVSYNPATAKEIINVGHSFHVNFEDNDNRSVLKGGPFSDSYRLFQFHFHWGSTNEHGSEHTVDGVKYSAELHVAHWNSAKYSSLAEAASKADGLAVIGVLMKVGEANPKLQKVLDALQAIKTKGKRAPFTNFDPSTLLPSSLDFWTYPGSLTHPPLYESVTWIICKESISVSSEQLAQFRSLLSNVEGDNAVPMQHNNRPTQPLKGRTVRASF
Compound,melting point,also measured
Cn1c(-c2ccc(Br)cc2)cs/c1=N\c1ccc(S(N)(=O)=O)cc1 [EMAC8002a],256 to 259 °C,
Cn1c(-c2ccc(Cl)cc2)cs/c1=N\c1ccc(S(N)(=O)=O)cc1 [EMAC8002b],241 to 242 °C,
Cn1c(-c2ccc(F)cc2)cs/c1=N\c1ccc(S(N)(=O)=O)cc1 [EMAC8002c],230 to 233 °C,
Cn1c(-c2cccc([N+](=O)[O-])c2)cs/c1=N\c1ccc(S(N)(=O)=O)cc1 [EMAC8002d],235 to 236 °C,
Cn1c(-c2ccc(Cl)cc2Cl)cs/c1=N\c1ccc(S(N)(=O)=O)cc1 [EMAC8002e],256 to 257 °C,
Cn1c(-c2ccc(C#N)cc2)cs/c1=N\c1ccc(S(N)(=O)=O)cc1 [EMAC8002f],237 to 238 °C,
Cn1c(-c2ccc(F)cc2F)cs/c1=N\c1ccc(S(N)(=O)=O)cc1 [EMAC8002g],239 to 240 °C,
Cn1c(-c2ccc([N+](=O)[O-])cc2)cs/c1=N\c1ccc(S(N)(=O)=O)cc1 [EMAC8002h],244 to 245 °C,
Cn1c(-c2ccc(-c3ccccc3)cc2)csc1=Nc1ccc(S(N)(=O)=O)cc1 [EMAC8002i],254 to 255 °C,Ki (hCA XII): 9.5 nM; selective index hCA II/hCA XII (hCA XII; ratio of Ki hCA II to Ki hCA XII): higher than 52; Ki (hCA II): 503 nM; Ki (hCA IX): 1390 nM; Ki (hCA I): 8910 nM
Cc1ccc(-c2cs/c(=N\c3ccc(S(N)(=O)=O)cc3)n2C)cc1 [EMAC8002j],252 to 254 °C,
COc1ccc(-c2cs/c(=N\c3ccc(S(N)(=O)=O)cc3)n2C)cc1 [EMAC8002k],243 to 244 °C,
Cn1c(-c2ccccc2)cs/c1=N\c1ccc(S(N)(=O)=O)cc1 [EMAC8002m],252 to 253 °C,
